Article PMC10709440, “High-throughput ligand profile characterization in novel cell lines expressing seven heterologous insect olfactory receptors for the detection of volatile plant biomarkers” (Scientific Reports, 2023)
Values joined by “and” are separate entries in the source; they are usually repeats but may differ in a detail not shown here. Equal values may be shown once. Read-outs that look alike come from different tables or passages of the source.

How the values were obtained:
[1] = system: OR10a; design: method as in earlier work; conditions: DoOR database value; ref DoOR; cited from earlier work
[2] = target: T1, Drosophila OR85b (Drosophila melanogaster, UniProt Q9VHQ7); assay: Calcium ion fluorescence (GCaMP6) assay, OR85b stable HEK293 cell line; format: cell-based; conditions: for Average response: OR85b cell line, VUAA1-normalized response, mean of biological replicates
T1 construct: expressed in transfected cells
T1 sequence (Q9VHQ7 1-390): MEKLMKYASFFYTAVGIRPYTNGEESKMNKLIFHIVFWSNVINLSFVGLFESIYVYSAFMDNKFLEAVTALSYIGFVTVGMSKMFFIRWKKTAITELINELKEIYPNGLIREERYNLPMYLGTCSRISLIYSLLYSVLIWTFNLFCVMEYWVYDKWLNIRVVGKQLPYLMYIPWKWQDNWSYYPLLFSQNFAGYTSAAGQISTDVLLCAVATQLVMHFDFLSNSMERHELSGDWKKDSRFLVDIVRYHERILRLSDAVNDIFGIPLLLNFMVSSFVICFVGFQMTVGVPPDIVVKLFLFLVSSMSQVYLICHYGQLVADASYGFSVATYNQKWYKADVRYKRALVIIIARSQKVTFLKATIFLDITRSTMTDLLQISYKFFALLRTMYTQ
T1 sequence (Q9VNB5 1-486 partner): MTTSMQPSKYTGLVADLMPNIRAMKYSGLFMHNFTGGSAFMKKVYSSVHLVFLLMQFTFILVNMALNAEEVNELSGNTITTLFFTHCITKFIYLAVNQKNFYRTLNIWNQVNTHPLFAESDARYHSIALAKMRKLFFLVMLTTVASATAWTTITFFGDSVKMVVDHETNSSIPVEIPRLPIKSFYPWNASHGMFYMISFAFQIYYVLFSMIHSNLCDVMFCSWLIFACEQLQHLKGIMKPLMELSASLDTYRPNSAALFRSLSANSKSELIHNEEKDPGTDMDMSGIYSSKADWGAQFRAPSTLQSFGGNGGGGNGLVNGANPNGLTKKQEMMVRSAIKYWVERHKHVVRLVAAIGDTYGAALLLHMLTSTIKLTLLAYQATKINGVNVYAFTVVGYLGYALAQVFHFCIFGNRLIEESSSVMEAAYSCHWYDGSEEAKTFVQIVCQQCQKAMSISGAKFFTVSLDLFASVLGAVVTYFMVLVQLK
Procedure, shortened: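 HEK293 lines stably expressing each Drosophila OR with GCaMP6, doxycycline-induced (1 μg/mL) 48 or 72 h. Fluorescence recorded 5 s baseline then 30 s after VOC injection at pH 7.3; ΔF=(FMAX−F0)/F0, normalized to 50 µM VUAA1 response per line, triplicate wells averaged; concentration series 0.01–100 μM.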

[3] = system: OR98a; design: method as in earlier work; conditions: DoOR database value; ref DoOR; cited from earlier work
[4] = system: OR85b; design: method as in earlier work; conditions: DoOR database value; ref DoOR; cited from earlier work
[5] = system: OR47a; design: method as in earlier work; conditions: DoOR database value; ref DoOR; cited from earlier work
[6] = system: OR71a; design: method as in earlier work; conditions: DoOR database value; ref DoOR; cited from earlier work
[7] = system: OR13a; design: method as in earlier work; conditions: DoOR database value; ref DoOR; cited from earlier work
[8] = system: OR49b; design: method as in earlier work; conditions: DoOR database value; ref DoOR; cited from earlier work
[9] = HEK293, read-out: OR85b response (VUAA1-normalized response)
[10] = HEK293, read-out: OR85b Average response (VUAA1-normalized)
[11] = VOC concentration 0.15 (unit not given)
[12] = VOC concentration 0.3 (unit not given)
[13] = VOC concentration 0.6 (unit not given)
[14] = VOC concentration 1.25 (unit not given)
[15] = VOC concentration 2.5 (unit not given)
[16] = VOC concentration 5 (unit not given)
[17] = VOC concentration 10 (unit not given)
[18] = VOC concentration 20 (unit not given)
[19] = VOC concentration 40 (unit not given)
[20] = VOC concentration 60 (unit not given)
[21] = VOC concentration 80 (unit not given)
[22] = VOC concentration 100 (unit not given)

## CC(=O)OCCC(C)C [isopentyl acetate]
[1]
  OR10a DoOR response: 0.42
[2]; [9]
  activation at 1 µM: 0%
  activation at 10 µM: 7%
  activation at 100 µM: 0%
[2]; cc. 1 µM
  Average response: 0.00
[2]; cc. 10 µM
  Average response: 0.07
[2]; cc. 100 µM
  Average response: 0.0239
[2]; ligand concentration 1 (unit not given), threshold 0.05, below shown as 0
  DF norm AVERAGE OR85b: 0
[2]; ligand concentration 10 (unit not given), threshold 0.05, below shown as 0
  DF norm AVERAGE OR85b: 0.07146
[2]; ligand concentration 100 (unit not given), threshold 0.05, below shown as 0
  DF norm AVERAGE OR85b: 0
[3]
  OR98a DoOR response: 0.64
[4]
  OR85b DoOR response: 0.34
[5]
  OR47a DoOR response: 0.41
[6]
  OR71a DoOR response: 0.03
[7]
  OR13a DoOR response: 0.15
[8]
  OR49b DoOR response: 0.027

## CCCCCC(C)=O [2-heptanone]
[1]
  OR10a DoOR response: 0.016
[2]; AVERAGE EC50, from average LOG EC50, N 5
  EC50: 68.9 µM
[2]; EC50 (fitted parameter), individual biological replicates
  EC50: 50.9 µM and 47.5 µM and 41.7 µM and 42.2 µM
[2]; EC50, AVERAGE, arithmetic average of 5 replicate EC50
  EC50: 110 µM
[2]; EC50, FITTED AVERAGE CURVE, fit to the average curve
  EC50: 72.2 µM
[2]; EC50, OR85b cell line, fitted Hill equation, Hill coefficient constrained to 1, maximal response max 1
  EC50: 68.9 µM
[2]; [10]
  activation at 1 µM: 4%
  activation at 10 µM: 20%
  activation at 100 µM: 55%
[2]; [9]
  activation at 1 µM: 0%
  activation at 10 µM: 20%
  activation at 100 µM: 55%
[2]; HEK293, read-out: VUAA1 normalized MAX response
  Emax: 72%
[2]; LOG EC50 (fitted parameter), individual biological replicates, OR85b D-R sheet
  EC50: 50.9 µM and 47.5 µM and 41.7 µM and 42.2 µM
[2]; LOG EC50, AVERAGE, average of 5 biological replicates
  EC50: 68.9 µM
[2]; cc. 1 µM
  Average response: 0.037
[2]; cc. 10 µM
  Average response: 0.20
[2]; cc. 100 µM
  Average response: 0.55
[2]; [11]
  response, AVERAGE: 0
  response, biological replicates: 0
[2]; [12]
  response, AVERAGE: 0
  response, biological replicates: 0
[2]; [13]
  response, AVERAGE: 0.02418
  response, biological replicates: 0 (3×) and 0.06045 (2×)
[2]; [14]
  response, AVERAGE: 0
  response, biological replicates: 0
[2]; [15]
  response, AVERAGE: 0
  response, biological replicates: 0
[2]; [16]
  response, AVERAGE: 0.05175
  response, biological replicates: 0 (2×) and 0.08029 and 0.08922 (2×)
[2]; [17]
  response, AVERAGE: 0.07565
  response, biological replicates: 0.1715 and 0 and 0.05971 and 0.07351 (2×)
[2]; [18]
  response, AVERAGE: 0.1574
  response, biological replicates: 0.2412 and 0.05753 and 0.1726 and 0.1579 (2×)
[2]; [19]
  response, AVERAGE: 0.2822
  response, biological replicates: 0.4423 and 0.101 and 0.2153 and 0.3264 (2×)
[2]; [20]
  response, AVERAGE: 0.3295
  response, biological replicates: 0.5597 and 0.152 and 0.2767
[2]; [21]
  response, AVERAGE: 0.3923
  response, biological replicates: 0.6627 and 0.1546 and 0.3278 and 0.4082 (2×)
[2]; [22]
  response, AVERAGE: 0.3199
  response, biological replicates: 0.2321 and 0.3319 and 0.3577 (2×)
[2]; average of 5 biological replicates
  AVERAGE MAX: 0.7284
[2]; concentration 1, normalized fluorescence change, values below 0.05 threshold given as 0
  DF norm AVERAGE OR85b: 0
[2]; concentration 10, normalized fluorescence change, values below 0.05 threshold given as 0
  DF norm AVERAGE OR85b: 0.1962
[2]; concentration 100, normalized fluorescence change, values below 0.05 threshold given as 0
  DF norm AVERAGE OR85b: 0.5508
[2]; fit to the average curve
  MAX, fitted average curve: 0.6682
[2]; individual biological replicates
  MAX (fitted parameter): 1 (2×) and 0.5003 and 0.5695 and 0.5722
[3]
  OR98a DoOR response: 0.62
[4]
  OR85b DoOR response: 0.65
[5]
  OR47a DoOR response: 0.58
[6]
  OR71a DoOR response: 0.045
[7]
  OR13a DoOR response: 0.26
[8]
  OR49b DoOR response: 0.011
